# Results: patent US5585353A, “Antibiotic peptides containing D-amino acids” (The Rockefeller University, priority 1994, dated 1996)
# Read-outs that look alike come from different tables or passages of the source. Residues, ends and D or L forms follow the SMILES beside them. No end group written: not given here.
# What was measured:
# [1] = test system: E. coli D21; test: inhibition zone assay, lethal concentration; type: cell-based; details: E. coli D21, thin agarose plates
# Method: (§1) Thin agar or agarose plates (8.5 cm diameter) were prepared with 6 ml of rich medium containing 100 ug/ml of streptomycin and 2×10^5 viable cells of a test organism resistant to streptomycin. Wells of 3.5 mm diameter were punched in the plates and 3 ul of serially diluted samples were placed in the wells. The diameters of the zones of inhibition around the wells were measured after overnight incubation at 30° or 37° C. For each peptide the squares of the zone diameters were plotted against the logarithm of the concentration, and from the slopes and intercepts the lethal concentrations were calculated as described by Hultmark (1983) EMBO J. 2, 571-76 or Hultmark et al (1982) Eur. J. Biochem. 127 207-217 each of which being incorporated herein by reference.
# (§2) Lethal Concentrations calculated from inhibition zones on thin agarose
# (§3) plates seeded with the respective organisms. D21: E. coli; OT97: P.
# [2] = test system: P. aeruginosa OT97; test: inhibition zone assay, lethal concentration; type: cell-based; details: P. aeruginosa OT97, thin agarose plates
# Method: as §1, §2, §3
# (§4) aeruginosa; Bs11: B. subtilis; +ME: plates prepared with medium E; Staph: […]
# [3] = test system: B. subtilis Bs11; test: inhibition zone assay, lethal concentration; type: cell-based; details: for Lethal Concentrations Bs11 +ME: B. subtilis Bs11, plates prepared with medium E; for Lethal Concentrations Bs11: B. subtilis Bs11, thin agarose plates
# Method: as §1, §2, §4
# [4] = test system: S. aureus Cowan 1; test: inhibition zone assay, lethal concentration; type: cell-based; details: S. aureus Cowan 1, thin agarose plates
# Method: as §1, §2
# aeruginosa; Bs11: B. subtilis; +ME: plates prepared with medium E; Staph:
# (§5) S. aureus Cowan 1; Strep: S. pyogenes; SRC: Sheep red cells.; *all amino
# [5] = test system: S. pyogenes; test: inhibition zone assay, lethal concentration; type: cell-based; details: thin agarose plates
# Method: as §1, §2, §5
# [6] = test system: Sheep red cells; test: inhibition zone assay, lethal concentration on sheep red cells; type: cell-based; details: thin agarose plates
# Method: as §1, §2, §5
# [7] = molecular target: immune inhibitor A (In A) (Bacillus thuringiensis subsp. alesti, UniProt P23382); type: in vitro ADME; details: 20 min at 36° C.; for Zone of inhibition: E. coli D21 plates
# Chain of immune inhibitor A (In A) (Bacillus thuringiensis subsp. alesti, UniProt P23382) (P23382 41-687): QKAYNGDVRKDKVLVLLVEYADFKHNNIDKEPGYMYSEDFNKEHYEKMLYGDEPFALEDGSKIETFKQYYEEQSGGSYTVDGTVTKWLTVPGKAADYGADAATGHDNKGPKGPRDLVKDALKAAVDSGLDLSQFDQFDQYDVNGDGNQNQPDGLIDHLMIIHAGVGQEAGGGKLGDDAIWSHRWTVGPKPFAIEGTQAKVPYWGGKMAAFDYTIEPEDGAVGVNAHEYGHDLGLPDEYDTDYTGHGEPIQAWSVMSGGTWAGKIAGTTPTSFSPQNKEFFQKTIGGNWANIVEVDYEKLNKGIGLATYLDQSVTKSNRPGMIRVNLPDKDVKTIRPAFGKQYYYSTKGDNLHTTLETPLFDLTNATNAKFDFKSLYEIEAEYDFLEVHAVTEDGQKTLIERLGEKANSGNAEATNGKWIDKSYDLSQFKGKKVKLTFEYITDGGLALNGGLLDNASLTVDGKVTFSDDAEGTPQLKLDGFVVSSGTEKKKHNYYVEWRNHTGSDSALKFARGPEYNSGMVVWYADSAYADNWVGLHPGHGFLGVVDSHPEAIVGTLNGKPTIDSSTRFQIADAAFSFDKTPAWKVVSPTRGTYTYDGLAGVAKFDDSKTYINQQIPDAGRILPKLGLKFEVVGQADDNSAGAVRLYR
# Method: (§6) FIGS. 1 and 2 graphically illustrate the resistance of the compounds of this invention to enzymatic hydrolysis by trypsin or immune inhibitor A (In A). The experiments were conducted as follows:
# (§7) The original solutions of the enzymes contained 5 mg/ml in the case of trypsin and 0.1 mg/ml in the case of InA. These two samples were diluted as follows: A 10^-1, B 10^-2, C 10^-3 and D 10^-4. From each dilution, 2 ul were mixed with 2 ul of two peptides (D-CA and L-CA, both containing 1.3 ug/ul=162 pmol/ul). Control mixtures were made with 2 ul water and 2 ul peptide. All samples were incubated for 20 min at 36° C. Before and after the incubation, all samples were kept on ice. After the incubation 3 ul were placed in wells on plates seeded with E. coli D21 in order the determine the amount of antibiotic that was left. The diameter of the inhibition zone was recorded and compared with a previously prepared a standard curve. Results are as given in the table and illustrated in the figures.
# [8] = test system: immune inhibitor A (In A); type: in vitro ADME; details: InA series, Control (no Enzyme), 20 min at 36° C.; for Zone of inhibition: peptide with water
# Method: as §6, §7
# [9] = test system: trypsin; test: proteolytic resistance to trypsin, residual antibiotic by inhibition zone on E. coli D21; type: in vitro ADME; details: 20 min at 36° C.
# Method: as §6, §7
# [10] = InA dilution A (10^-1 of 0.1 mg/ml)
# [11] = Trypsin dilution A (10^-1 of 5 mg/ml), E. coli D21 plates
# [12] = Trypsin dilution B (10^-2), E. coli D21 plates
# [13] = Trypsin dilution C (10^-3), E. coli D21 plates
# [14] = Trypsin dilution D (10^-4), E. coli D21 plates
# [15] = Trypsin series, Control (no enzyme)
# [16] = Trypsin series, Control (no enzyme), peptide with water
compound,measurement,setting,value
CC[C@@H](C)[C@@H](NC(=O)CNC(=O)[C@@H](CC(=O)O)NC(=O)[C@@H](CCCNC(=N)N)NC(=O)[C@H](NC(=O)[C@@H](CC(N)=O)NC(=O)[C@@H](CCC(N)=O)NC(=O)CNC(=O)[C@H](NC(=O)[C@@H](CCCCN)NC(=O)[C@@H](CCC(=O)O)NC(=O)[C@H](NC(=O)[C@@H](CCCCN)NC(=O)[C@@H](CCCCN)NC(=O)[C@@H](Cc1ccccc1)NC(=O)[C@@H](CC(C)C)NC(=O)[C@@H](CCCCN)NC(=O)[C@@H](Cc1c[nH]c2ccccc12)NC(=O)[C@H](N)CCCCN)[C@H](C)CC)C(C)C)[C@H](C)CC)C(=O)N[C@@H](C(=O)N[C@H](CCCCN)C(=O)N[C@H](C)C(=O)NCC(=O)N1CCC[C@@H]1C(=O)N[C@H](C)C(=O)N[C@@H](C(=O)N[C@H](C)C(=O)N[C@@H](C(=O)N[C@@H](C(=O)NCC(=O)N[C@H](CCC(N)=O)C(=O)N[C@H](C)C(=O)N[C@@H](C(=O)N[C@H](CCC(N)=O)C(=O)N[C@@H](C(=O)N[C@H](C)C(=O)N[C@H](CCCCN)C(N)=O)[C@H](C)CC)[C@H](C)O)C(C)C)C(C)C)C(C)C)[C@H](C)CC [Compound 2] (HELM PEPTIDE1{[dK].[dW].[dK].[dL].[dF].[dK].[dK].[dI].[dE].[dK].[dV].G.[dQ].[dN].[dI].[dR].[dD].G.[dI].[dI].[dK].[dA].G.[dP].[dA].[dV].[dA].[dV].[dV].G.[dQ].[dA].[dT].[dQ].[dI].[dA].[dK].[am]}$$$$V2.0),Lethal Concentrations D21,[1],0.3 µM
same,Lethal Concentrations OT97,[2],0.8 µM
same,Lethal Concentrations Bs11 +ME,[3],30 µM
same,Lethal Concentrations Bs11,[3],3 µM
same,Lethal Concentrations Staph,[4],> 300 µM
same,Lethal Concentrations Strep,[5],2 µM
same,Lethal Concentrations SRC,[6],> 300 µM
same,Amount of peptide left,[7]; InA dilution A (10^-1),512 pmol
same,Conc.,[7]; InA dilution A (10^-1),171 µM
same,Percent remaining,[7]; InA dilution A (10^-1),106%
same,Zone of inhibition,[7]; [10],1.54 cm
same,Amount of peptide left,[7]; InA dilution B (10^-2),468 pmol
same,Conc.,[7]; InA dilution B (10^-2),156 µM
same,Percent remaining,[7]; InA dilution B (10^-2),96%
same,Zone of inhibition,[7]; InA dilution B (10^-2),1.52 cm
same,Amount of peptide left,[7]; InA dilution C (10^-3),468 pmol
same,Conc.,[7]; InA dilution C (10^-3),156 µM
same,Percent remaining,[7]; InA dilution C (10^-3),96%
same,Zone of inhibition,[7]; InA dilution C (10^-3),1.52 cm
same,Amount of peptide left,[7]; InA dilution D (10^-4),448 pmol
same,Conc.,[7]; InA dilution D (10^-4),149 µM
same,Percent remaining,[7]; InA dilution D (10^-4),92%
same,Zone of inhibition,[7]; InA dilution D (10^-4),1.51 cm
same,Amount of peptide left,[8],535 pmol
same,Conc.,[8],178 µM
same,Percent remaining,[8],110%
same,Zone of inhibition,[8],1.55 cm
same,Amount of peptide left,[9]; Trypsin dilution A (10^-1),535 pmol
same,Conc.,[9]; Trypsin dilution A (10^-1),178 µM
same,Percent remaining,[9]; Trypsin dilution A (10^-1),110%
same,Zone of inhibition,[9]; [11],1.55 cm
same,Amount of peptide left,[9]; Trypsin dilution B (10^-2),489 pmol
same,Conc.,[9]; Trypsin dilution B (10^-2),163 µM
same,Percent remaining,[9]; Trypsin dilution B (10^-2),101%
same,Zone of inhibition,[9]; [12],1.53 cm
same,Amount of peptide left,[9]; Trypsin dilution C (10^-3),512 pmol
same,Conc.,[9]; Trypsin dilution C (10^-3),171 µM
same,Percent remaining,[9]; Trypsin dilution C (10^-3),106%
same,Zone of inhibition,[9]; [13],1.54 cm
same,Amount of peptide left,[9]; Trypsin dilution D (10^-4),489 pmol
same,Conc.,[9]; Trypsin dilution D (10^-4),163 µM
same,Percent remaining,[9]; Trypsin dilution D (10^-4),101%
same,Zone of inhibition,[9]; [14],1.53 cm
same,Amount of peptide left,[9]; [15],512 pmol
same,Conc.,[9]; [15],171 µM
same,Percent remaining,[9]; [15],106%
same,Zone of inhibition,[9]; [16],1.54 cm
"KWKLFKKIEKVGQNIRDGIIKAGPAVAVVGQATQIAK-NH2 [Compound 1, Cecropin A]",Lethal Concentrations D21,[1],0.2 µM
same,Lethal Concentrations OT97,[2],1 µM
same,Lethal Concentrations Bs11 +ME,[3],60 µM
same,Lethal Concentrations Bs11,[3],3 µM
same,Lethal Concentrations Staph,[4],> 300 µM
same,Lethal Concentrations Strep,[5],5 µM
same,Lethal Concentrations SRC,[6],> 200 µM
same,Amount of peptide left,[7]; InA dilution A (10^-1),0 pmol
same,Conc.,[7]; InA dilution A (10^-1),0 µM
same,Percent remaining,[7]; InA dilution A (10^-1),0%
same,Zone of inhibition,[7]; [10],None
same,Amount of peptide left,[7]; InA dilution B (10^-2),316 pmol
same,Conc.,[7]; InA dilution B (10^-2),105 µM
same,Percent remaining,[7]; InA dilution B (10^-2),65%
same,Zone of inhibition,[7]; InA dilution B (10^-2),1.42 cm
same,Amount of peptide left,[7]; InA dilution C (10^-3),442 pmol
same,Conc.,[7]; InA dilution C (10^-3),147 µM
same,Percent remaining,[7]; InA dilution C (10^-3),91%
same,Zone of inhibition,[7]; InA dilution C (10^-3),1.48 cm
same,Amount of peptide left,[7]; InA dilution D (10^-4),469 pmol
same,Conc.,[7]; InA dilution D (10^-4),156 µM
same,Percent remaining,[7]; InA dilution D (10^-4),96%
same,Zone of inhibition,[7]; InA dilution D (10^-4),1.49 cm
same,Amount of peptide left,[8],469 pmol
same,Conc.,[8],156 µM
same,Percent remaining,[8],96%
same,Zone of inhibition,[8],1.49 cm
same,Amount of peptide left,[9]; Trypsin dilution A (10^-1),0 pmol
same,Conc.,[9]; Trypsin dilution A (10^-1),0 µM
same,Percent remaining,[9]; Trypsin dilution A (10^-1),0%
same,Zone of inhibition,[9]; [11],None
same,Amount of peptide left,[9]; Trypsin dilution B (10^-2),0 pmol
same,Conc.,[9]; Trypsin dilution B (10^-2),0 µM
same,Percent remaining,[9]; Trypsin dilution B (10^-2),0%
same,Zone of inhibition,[9]; [12],None
same,Amount of peptide left,[9]; Trypsin dilution C (10^-3),34 pmol
same,Conc.,[9]; Trypsin dilution C (10^-3),11 µM
same,Percent remaining,[9]; Trypsin dilution C (10^-3),6.8%
same,Zone of inhibition,[9]; [13],0.93 cm
same,Amount of peptide left,[9]; Trypsin dilution D (10^-4),131 pmol
same,Conc.,[9]; Trypsin dilution D (10^-4),44 µM
same,Percent remaining,[9]; Trypsin dilution D (10^-4),27%
same,Zone of inhibition,[9]; [14],1.25 cm
same,Amount of peptide left,[9]; [15],373 pmol
same,Conc.,[9]; [15],124 µM
same,Percent remaining,[9]; [15],77%
same,Zone of inhibition,[9]; [16],1.45 cm
